Results on 14 compounds are retold here after EPA's ToxValDB 9.5.

Values joined by “and” are separate entries in the source; they are usually repeats but may differ in a detail not shown here. Equal entries are not always repeated.

The test system of data set [1] is Rattus norvegicus.
In data set [2] the test system is Oryctolagus sp. The following applies: subchronic; duration: 45 days; inhalation; Hemorrhagic alveoli and congested capillaries the lungs.
In data set [3] the test system is Rattus norvegicus. The following applies: for LOAEL: subchronic.
Data set [4] deals with Rattus norvegicus. The following applies: for LEL: uterotrophic, Active; for NOEL: Sprague-Dawley.
The test system of data set [5] is Mus musculus. The following applies: uterotrophic, Active.
In data set [6] the test system is Canidae. The following applies: chronic; oral; diet; M/F; Dog Other; methemoglobin and sulfhemoglobin formation.
In data set [7] the test system is Rattus norvegicus. The following applies: chronic; duration: 2 years; oral; Increased methaemoglobin and sulfhaemoglobin levels.
Data set [8] relates to Canidae. The following applies: oral.
The test system of data set [9] is Rattus norvegicus. The following applies: acute; oral.
The test system of data set [10] is Mus musculus. The following applies: repeat dose other; oral.
Data set [11] concerns Oryctolagus sp. The following applies: reproduction developmental; duration: 12 days; oral; gavage; M/F; New Zealand; gastrointestinal.
The test system of data set [12] is Rattus norvegicus. The following applies: subchronic, oral, diet, Fischer 344, Clinical Observation: Diarrhea + Body Weight Changes: decrease(>25000 ) + Hematology: Hct increase, RBC increase, Hgb increase + Blood ….
The mark [13] stands for this setting: reproduction developmental, oral, drinking water, M/F, neurodevelopmental effects.
Setting [14] is: duration: 36 days, injection, subcutaneous.
Setting [15] is: chronic, duration: 1 years, gavage, M/F, Beagle, Mydriasis and focal neuronal degeneration.
Setting [16] is: reproduction developmental, oral, M/F, increased incidence of renal tubular dilation in f3b offspring.
Setting [17] is: duration: 7 days, injection, subcutaneous.

For the compound `[O][Cl+][O-]` [Chlorine dioxide], the LOAEL in the data set with Rattus norvegicus [1] (setting [13]) amounted to 6 mg/kg-day; in the data set with Rattus norvegicus [1] (subchronic, duration: 60 days, inhalation, vascular congestion and peribronchial edema), 2.76 mg/m3; with Oryctolagus sp. [2], 6.9 mg/m3; in the data set on Rattus norvegicus [3] (duration: 2 months, inhalation, unknown, Wistar, respiratory), 2.76 mg/m3. The compound also displayed an NOAEL in the data set with Rattus norvegicus [1] (setting [13]) of 3 mg/kg-day.
Regarding `CC(=O)O[C@]1(C(C)=O)CC[C@H]2[C@@H]3C=C(Cl)C4=CC(=O)[C@@H]5C[C@@H]5[C@]4(C)[C@H]3CC[C@@]21C` [Cyproterone acetate], in the data set on Rattus norvegicus [4] (Hershberger, duration: 10 days, oral, gavage, Wistar, active + Negative + Antiandrogenic + anti-androgenic), the LOEL came out at 0.4 mg/kg-day. Moreover, the LEL was 3 mg and 1 mg/day in the data set on Rattus norvegicus [4] (setting [14]); 2 mg and 1 mg/day in the data set with Mus musculus [5] (setting [14]).
The compound `O=C(NC(=O)c1c(F)cccc1F)Nc1ccc(Cl)cc1` [Diflubenzuron] returned an LEL in the data set with Canidae [6] of 10 mg/kg-day. The NOEL in the data set on Canidae [6] amounted to 2 mg/kg-day. Besides, the NOAEL came to 2 mg/kg-day with Rattus norvegicus [7]; 2 mg/kg-day in the data set with Canidae [8] (chronic, duration: 1 years, Dog Other, Increased methaemoglobin and sulfhaemoglobin levels, platelet counts and hepatic pigmentation).
Consider `CCCCCCOC(=O)c1ccccc1C(=O)OCCCCCC` [Dihexyl phthalate], for which the LD50 in the data set on Rattus norvegicus [9] was 38.9 mg/kg and 29.6 mg/kg. In the data set with Mus musculus [10], the LOAEL worked out at 550 mg/kg-day and the NOAEL is 55 mg/kg-day.
Take `CC(=O)NCC(=O)O.CC(=O)NCC(=O)O.N=C(N)c1ccc(N=NNc2ccc(C(=N)N)cc2)cc1` [Diminazene diaceturate]: the LOEL in the data set with Canidae [8] (chronic, duration: 9 months, capsule, M/F, Beagle, Decreased bodyweights, mortality, prostatic malfunction, foci of softening in the brainstem, & testicular atrophy) was 60 mg/kg-day; in the data set on Canidae [8] (duration: 9 months, capsule, M/F, Beagle, Decreased bodyweights, mortality, prostatic malfunction, foci of softening in the brainstem, & testicular atrophy), 60 mg/kg-day.
The compound `CO[C@H]1C[C@H](O[C@H]2[C@H](C)O[C@@H](O[C@@H]3/C(C)=C/C[C@@H]4C[C@@H](C[C@]5(C=C[C@H](C)[C@@H](C6CCCCC6)O5)O4)OC(=O)[C@@H]4C=C(C)[C@@H](O)[C@H]5OC/C(=C\C=C\[C@@H]3C)[C@]54O)C[C@@H]2OC)O[C@@H](C)[C@@H]1O` [Doramectin] showed an LOEL in the data set with Canidae [8] (duration: 3 months, gavage, M/F, Beagle, Mydriasis) of 0.3 mg/kg-day. Besides, in the data set on Canidae [8] (subchronic, duration: 3 months, gavage, M/F, Dog Other, Mydriasis), the NOEL was found to be 0.1 mg/kg-day.
Take `CO[C@H]1C[C@H](O[C@@H]2/C(C)=C\C[C@@H]3C[C@@H](C[C@]4(C=C[C@H](C)[C@@H](C(C)C)O4)O3)OC(=O)[C@@H]3C=C(C)[C@@H](O)[C@H]4OC/C(=C/C=C\[C@@H]2C)[C@]43O)O[C@@H](C)[C@H]1O[C@H]1C[C@@H](OC)[C@H](NC(C)=O)[C@H](C)O1` [Eprinomectin]: in the data set on Canidae [8] (setting [15]), the LOAEL amounted to 2 mg/kg-day and the NOEL worked out at 1 mg/kg-day.
Consider `C=C1C[C@]23C[C@@]1(O)CC[C@H]2[C@@]12C=C[C@H](O)[C@@](C)(C(=O)O1)[C@H]2[C@@H]3C(=O)O` [Gibberellic acid], for which the LEL in the data set with Mus musculus [5] (duration: 5 days, injection, subcutaneous) was determined as 0.0001 mg/day.
`O=C(O)CNCP(=O)(O)O` [Glyphosate]: in the data set on Rattus norvegicus [1] (setting [16]), the LEL amounted to 30 mg/kg-day. The NOEL in the data set on Rattus norvegicus [1] (setting [16]) is 10 mg/kg-day; in the data set with Rattus norvegicus [12] (F), 213 mg/kg-day; with Rattus norvegicus [12] (M/F), under 300 mg/kg-day; with Rattus norvegicus [4] (Hershberger, duration: 10 days, oral, gavage, inactive + Negative + Negative + neither + decrease in AST and liver at 1000 / decrease in bw 10% at 1000 / testosterone dose-dependent …) it was 300 mg/kg-day. The NOAEL with Rattus norvegicus [3] (chronic, duration: 24 months, oral, diet, F, albino Sprague Dawley, gastrointestinal) was determined as 113 mg/kg-day; in the data set with Rattus norvegicus [3] (chronic, duration: 24 months, oral, diet, M/F, albino Sprague Dawley, gastrointestinal), 113 mg/kg-day; in the data set on Oryctolagus sp. [11], 100 mg/kg-day.
Turning to `C#C[C@]1(O)CC[C@H]2[C@@H]3CCC4=CC(=O)CC[C@@H]4[C@H]3CC[C@@]21C` [Norethindrone], the NOEL in the data set with Rattus norvegicus [4] (Hershberger, duration: 10 days, oral, gavage, active + negative + Negative + neither) is 10 mg/kg-day. Besides, the LEL in the data set with Rattus norvegicus [4] (duration: 14 days, injection, subcutaneous) amounted to 2 mg/day; in the data set with Rattus norvegicus [4] (duration: 14 days, oral), 0.1 mg/day; in the data set with Mus musculus [5] (duration: 3 days, oral) it was 0.1 mg/day.
Turning to `COC(=O)[C@H]1[C@H]2C[C@@H]3c4[nH]c5cc(OC)ccc5c4CCN3C[C@H]2C[C@@H](OC(=O)c2cc(OC)c(OC)c(OC)c2)[C@@H]1OC` [Reserpine], the LEL in the data set on Mus musculus [5] (setting [17]) was 3 mg/kg-day.
In the data set with Mus musculus [10], `CC(=O)[O-].CC(=O)[O-].[O]=[U+2]=[O]` [Uranyl acetate] returned an LOAEL of 6.13 mg/kg-day and an NOAEL of 3.07 mg/kg-day.
Regarding `ClC1C(Cl)C(Cl)C(Cl)C(Cl)C1Cl` (stereo not drawn) [beta-Hexachlorocyclohexane], the NOAEL in the data set with Rattus norvegicus [3] (short-term, duration: 2 weeks, oral, diet, M/F, Wistar, neurological) is 8 mg/kg-day. The same compound gave an LOAEL in the data set with Rattus norvegicus [3] (duration: 13 weeks, oral, diet, M/F, Wistar, hepatic) of 0.18 mg/kg-day. Further, the LEL in the data set on Rattus norvegicus [4] (duration: 3 days, oral) was 3 mg/kg-day; in the data set with Mus musculus [5] (duration: 3 days, injection, intraperitoneal) it was 100 mg/kg-day.
For `Clc1ccc(C(c2ccccc2Cl)C(Cl)(Cl)Cl)cc1` (centres undefined) [o,p'-DDT], the LEL was determined as 10 mg/day in the data set on Rattus norvegicus [4] (duration: 0.25 days, injection, subcutaneous); 300 mg/kg-day in the data set with Rattus norvegicus [4] (duration: 1 days, oral); 4 mg with Rattus norvegicus [4] (duration: 2 days, injection, intraperitoneal); 4 mg in the data set on Rattus norvegicus [4] (duration: 2 days, injection, subcutaneous); 250 ppm with Rattus norvegicus [4] (duration: 3 days, oral, diet); 10 mg/day in the data set on Rattus norvegicus [4] (duration: 7 days, injection, intraperitoneal). Moreover, the LEL with Rattus norvegicus [4] (setting [17]) is 50 mg/kg-day and 100 mg/kg-day; in the data set with Rattus norvegicus [4] (duration: 7 days, oral), 50 mg/kg-day; in the data set with Rattus norvegicus [4] (duration: 7 days, oral, diet), 500 ppm; in the data set with Rattus norvegicus [4] (duration: 8 days, oral, diet), 500 ppm; in the data set with Rattus norvegicus [4] (duration: 27 days, injection, intraperitoneal), 0.5 mg/day; in the data set with Mus musculus [5] (duration: 1 days, oral), 375 mg/kg-day and 300 mg/kg-day. In the data set with Mus musculus [5] (duration: 3 days, oral), the LEL worked out at 30 mg/kg-day.
